From the Kinase Knowledgebase extract (Sharma et al. 2016)

Biological target: MAPK14 (human) (UniProt Q16539)
Experiment: Cell-Based Assay
Conditions: hct-116

Sequence of MAPK14 (human) (Q16539 whole entry, looked up): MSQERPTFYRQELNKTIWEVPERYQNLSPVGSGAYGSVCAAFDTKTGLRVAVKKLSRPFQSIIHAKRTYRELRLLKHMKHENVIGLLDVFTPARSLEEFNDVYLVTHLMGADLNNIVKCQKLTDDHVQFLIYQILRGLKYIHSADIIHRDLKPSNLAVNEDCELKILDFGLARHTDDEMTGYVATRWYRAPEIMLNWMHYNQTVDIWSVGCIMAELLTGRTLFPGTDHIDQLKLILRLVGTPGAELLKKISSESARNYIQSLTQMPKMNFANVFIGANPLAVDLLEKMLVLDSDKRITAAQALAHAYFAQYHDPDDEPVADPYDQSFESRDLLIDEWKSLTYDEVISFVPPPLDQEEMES

Row | IC50 | SMILES
1 | 100 to 1000 nM | CN1CCC(n2cc(-c3cnc(N)c4oc(-c5cccc6cnccc56)cc34)cn2)CC1
2 | 100 to 1000 nM | CC(=O)N1CCC(n2cc(-c3cnc(N)c4oc(-c5cccc(C#N)c5)cc34)cn2)CC1
3 | 100 to 1000 nM | CC(=O)N1CCC(n2cc(-c3cnc(N)c4oc(-c5ccc(O)cc5)cc34)cn2)CC1
4 | > 10000 nM | CC(=O)N1CCC(n2cc(-c3cnc(N)c4oc(-c5ccc6[nH]nc(C#N)c6c5)cc34)cn2)CC1
5 | > 10000 nM | CC(=O)N1CCC(n2cc(-c3cnc(N)c4oc(-c5ccc6c(c5)C(=O)NC6)cc34)cn2)CC1
6 | 100 to 1000 nM | CC(=O)N1CCC(n2cc(-c3cnc(N)c4oc(-c5ccc6[nH]ccc6c5)cc34)cn2)CC1
7 | 100 to 1000 nM | CNc1ncc(-c2cnn(C3CCN(C(C)=O)CC3)c2)c2cc(-c3c[nH]c4cnccc34)oc12
8 | 100 to 1000 nM | Nc1ncc(-c2cnn(C3CCNCC3)c2)c2cc(-c3ccc4[nH]ncc4c3)oc12
9 | 100 to 1000 nM | C[C@]1(O)CC[C@@H](n2cc(-c3cnc(N)c4oc(-c5cccc6cnccc56)cc34)cn2)CC1
10 | 100 to 1000 nM | CC(=O)N1CCC(n2cc(-c3cnc(N)c4oc(-c5cccc(O)c5)cc34)cn2)CC1
11 | 100 to 1000 nM | CC(=O)N1CCC(n2cc(-c3cnc(N)c4oc(-c5ccc6scnc6c5)cc34)cn2)CC1
12 | > 10000 nM | CC(=O)N1CCC(n2cc(-c3cnc(N)c4oc(-c5cn[nH]c5)cc34)cn2)CC1
13 | 100 to 1000 nM | COCCN1CCC(n2cc(-c3cnc(N)c4oc(-c5cccc6cnccc56)cc34)cn2)CC1
14 | 100 to 1000 nM | CC(=O)N1CCC(n2cc(-c3cnc(N)c4oc(-c5cncc6cnsc56)cc34)cn2)CC1
15 | 100 to 1000 nM | CC(C)(C)OC(=O)N1CCC(n2cc(-c3cnc(N)c4oc(-c5csc6cnccc56)cc34)cn2)CC1
16 | ≤ 100 nM | Nc1ncc(-c2cnn([C@H]3CC[C@H](O)CC3)c2)c2cc(-c3csc4cnccc34)oc12
17 | ≤ 100 nM | CNc1ncc(-c2cnn(C3CCN(C(C)=O)CC3)c2)c2cc(-c3csc4cnccc34)oc12
18 | ≤ 100 nM | CC(C)n1cc(-c2cnc(N)c3oc(-c4c[nH]c5cnccc45)cc23)cn1
19 | ≤ 100 nM | Nc1ncc(-c2cnn([C@H]3CC[C@H](O)CC3)c2)c2cc(-c3csc4cnc(F)cc34)oc12
20 | ≤ 100 nM | CC(C)C(=O)N1CCC(n2cc(-c3cnc(N)c4oc(-c5cccc6cnccc56)cc34)cn2)CC1
21 | 100 to 1000 nM | CC(=O)N1CCC(n2cc(-c3cnc(N)c4oc(-c5cccc(OCC#N)c5)cc34)cn2)CC1

Row | IC50 | SMILES
22 | 100 to 1000 nM | CS(=O)(=O)N1CCC(n2cc(-c3cnc(N)c4oc(-c5cccc6cnccc56)cc34)cn2)CC1
23 | 100 to 1000 nM | Nc1ncc(-c2cnn(C3CCNCC3)c2)c2cc(-c3cccc4cnccc34)oc12
24 | > 10000 nM | CC(=O)N1CCC(n2cc(-c3cnc(N)c4oc(-c5ccc6c(c5)CNC6=O)cc34)cn2)CC1
25 | ≤ 100 nM | CC(=O)N1CCC(n2cc(-c3cnc(N)c4oc(-c5cccc6nnsc56)cc34)cn2)CC1
26 | ≤ 100 nM | CNc1ncc(-c2cnn([C@H]3CC[C@H](O)CC3)c2)c2cc(-c3csc4cnccc34)oc12
27 | 100 to 1000 nM | Cn1cc(-c2cnc(N)c3oc(-c4c[nH]c5cnccc45)cc23)cn1
28 | 100 to 1000 nM | Nc1ncc(-c2cnn([C@H]3CC[C@H](O)CC3)c2)c2cc(-c3cncc4cnsc34)oc12
29 | 100 to 1000 nM | COCC(=O)N1CCC(n2cc(-c3cnc(N)c4oc(-c5cccc6cnccc56)cc34)cn2)CC1
30 | 100 to 1000 nM | Nc1ncc(-c2cnn([C@H]3CC[C@H](O)CC3)c2)c2cc(-c3ccc(F)c4cnsc34)oc12
31 | 100 to 1000 nM | CCSc1ccccc1-c1cc2c(-c3cnn(C4CCN(C(C)=O)CC4)c3)cnc(N)c2o1
32 | > 10000 nM | CC(=O)N1CCC(n2cc(-c3cnc(N)c4oc(-c5ccc6ncn(C)c6c5)cc34)cn2)CC1
33 | 100 to 1000 nM | CC(=O)N1CC(n2cc(-c3cnc(N)c4oc(-c5csc6cnccc56)cc34)cn2)C1
34 | 100 to 1000 nM | Cc1sc2cnccc2c1-c1cc2c(-c3cnn([C@H]4CC[C@H](O)CC4)c3)cnc(N)c2o1
35 | 100 to 1000 nM | CC(C)N1CCC(n2cc(-c3cnc(N)c4oc(-c5cccc6cnccc56)cc34)cn2)CC1
36 | 100 to 1000 nM | CC(=O)N1CCC(n2cc(-c3cnc(N)c4oc(-c5cccc6ccnn56)cc34)cn2)CC1
37 | 100 to 1000 nM | CC(=O)N1CCC(n2cc(-c3cnc(N)c4oc(-c5csc6cncc(F)c56)cc34)cn2)CC1
38 | 100 to 1000 nM | CC(=O)N1CCC(n2cc(-c3cnc(N)c4oc(-c5ccc(O)cc5C)cc34)cn2)CC1
39 | 100 to 1000 nM | CC(=O)N1CCC(n2cc(-c3cnc(N)c4oc(-c5cccc([N+](=O)[O-])c5)cc34)cn2)CC1
40 | ≤ 100 nM | CC(=O)N1CCC(n2cc(-c3cnc(N)c4oc(-c5ccc6c(c5)CCO6)cc34)cn2)CC1
41 | 100 to 1000 nM | CC(=O)N1CCC(n2cc(-c3cnc(N)c4oc(-c5c[nH]c6cc(F)ccc56)cc34)cn2)CC1
42 | 100 to 1000 nM | CC(C)n1cc(-c2cnc(N)c3oc(-c4cccc5cnccc45)cc23)cn1

Row | IC50 | SMILES
43 | 100 to 1000 nM | Nc1ncc(-c2cnn(C3CC(=O)C3)c2)c2cc(-c3csc4cnccc34)oc12
44 | 100 to 1000 nM | CC(=O)N1CCC(n2cc(-c3cnc(N)c4oc(-c5c[nH]c6cc(C#N)ccc56)cc34)cn2)CC1
45 | 100 to 1000 nM | Cn1cc(-c2cnc(N)c3oc(-c4csc5cnccc45)cc23)cn1
46 | 100 to 1000 nM | CC(=O)N1CCC(n2cc(-c3cnc(N)c4oc(-c5cccc6[nH]ncc56)cc34)cn2)CC1
47 | 100 to 1000 nM | CC(=O)N1CCC(n2cc(-c3cnc(N)c4oc(-c5cccc6[nH]ccc56)cc34)cn2)CC1
48 | 100 to 1000 nM | Nc1ncc(-c2cnn(C3CCNCC3)c2)c2cc(-c3cccc4cnsc34)oc12
49 | > 10000 nM | Nc1ncc(-c2cnn(C3CCNCC3)c2)c2cc(-c3ccc4[nH][nH]c(=O)c4c3)oc12
50 | 100 to 1000 nM | CC(=O)N1CCC(n2cc(-c3cnc(N)c4oc(-c5ccc6occc6c5)cc34)cn2)CC1
51 | 100 to 1000 nM | Nc1ncc(-c2cnn([C@H]3CC[C@H](O)CC3)c2)c2cc(-c3c(F)ccc4cnsc34)oc12
52 | 100 to 1000 nM | CC(=O)N1CCC(n2cc(-c3cnc(N)c4oc(-c5ccccc5CC#N)cc34)cn2)CC1
53 | 100 to 1000 nM | Nc1ncc(-c2cnn(C3CC4(C3)OCCO4)c2)c2cc(-c3csc4cnccc34)oc12
54 | 100 to 1000 nM | CC(=O)N1CCC(n2cc(-c3cnc(N)c4oc(-c5csc6cnccc56)cc34)cn2)CC1
55 | 100 to 1000 nM | Nc1ncc(-c2cnn([C@H]3CC[C@H](O)CC3)c2)c2cc(-c3cc(F)cc4cnsc34)oc12
56 | > 10000 nM | CC(=O)N1CCC(n2cc(-c3cnc(N)c4oc(-c5ccc(S(C)(=O)=O)cc5)cc34)cn2)CC1
57 | 100 to 1000 nM | CCN1CCC(n2cc(-c3cnc(N)c4oc(-c5cccc6cnccc56)cc34)cn2)CC1
58 | 100 to 1000 nM | Nc1ncc(-c2cnn([C@H]3CC[C@H](O)CC3)c2)c2cc(-c3cccc4cnccc34)oc12
59 | 100 to 1000 nM | Nc1ncc(-c2cnn(C3CCN(CCO)CC3)c2)c2cc(-c3cccc4cnccc34)oc12
60 | 100 to 1000 nM | CC(=O)N1CCC(n2cc(-c3cnc(N)c4oc(-c5cccc([N+](=O)[O-])c5C)cc34)cn2)CC1
61 | 100 to 1000 nM | Nc1ncc(-c2cnn([C@@H]3C[C@@H](O)[C@@H](O)C3)c2)c2cc(-c3csc4cnccc34)oc12
62 | 100 to 1000 nM | Nc1ncc(-c2cnn(C3CNC3)c2)c2cc(-c3csc4cnccc34)oc12
63 | 100 to 1000 nM | Nc1ncc(-c2cnn(C3CCN(C(=O)C4CC4)CC3)c2)c2cc(-c3cccc4cnccc34)oc12

Row | IC50 | SMILES
64 | ≤ 100 nM | CC(=O)N1CCC(n2cc(-c3cnc(N)c4oc(-c5cccc6cnsc56)cc34)cn2)CC1
65 | 100 to 1000 nM | CSc1ccccc1-c1cc2c(-c3cnn(C4CCN(C(C)=O)CC4)c3)cnc(N)c2o1
66 | ≤ 100 nM | Nc1ncc(-c2cnn([C@H]3CC[C@H](O)CC3)c2)c2cc(-c3cccc4nnsc34)oc12
67 | 100 to 1000 nM | Nc1ncc(-c2cnn([C@H]3CC[C@H](O)CC3)c2)c2cc(-c3cccc4cnsc34)oc12
68 | 100 to 1000 nM | CC(=O)N1CCC(n2cc(-c3cnc(N)c4oc(-c5cccc6cnccc56)cc34)cn2)CC1
69 | 100 to 1000 nM | Nc1ncc(-c2cnn(C3CCCCC3)c2)c2cc(-c3c[nH]c4cnccc34)oc12
70 | 100 to 1000 nM | Nc1ncc(-c2cnn(C3CCN(C(=O)C4CCC4)CC3)c2)c2cc(-c3cccc4cnccc34)oc12
71 | 100 to 1000 nM | Cn1cc(-c2cnc(N)c3oc(-c4cccc5cnccc45)cc23)cn1
72 | 100 to 1000 nM | CS(=O)(=O)CCN1CCC(n2cc(-c3cnc(N)c4oc(-c5cccc6cnccc56)cc34)cn2)CC1
73 | > 10000 nM | CC(=O)N1CCC(n2cc(-c3cnc(N)c4oc(-c5ccc6[nH]nnc6c5)cc34)cn2)CC1
74 | > 10000 nM | CC(=O)N1CCC(n2cc(-c3cnc(N)c4oc(-c5cnn(Cc6cccnc6)c5)cc34)cn2)CC1
75 | 100 to 1000 nM | Nc1ncc(-c2cn[nH]c2)c2cc(-c3cccc4cnccc34)oc12
76 | 100 to 1000 nM | Nc1ncc(-c2cnn(C3CCNCC3)c2)c2cc(-c3csc4cnccc34)oc12
77 | 100 to 1000 nM | CC(=O)N1CCC(n2cc(-c3cnc(N)c4oc(-c5cccn6ccnc56)cc34)cn2)CC1
78 | 100 to 1000 nM | CC(=O)N1CCC(n2cc(-c3cnc(N)c4oc(-c5csc6ccccc56)cc34)cn2)CC1
79 | 100 to 1000 nM | CC(=O)N1CCC(n2cc(-c3cnc(N)c4oc(-c5ccc6sccc6c5)cc34)cn2)CC1
80 | 100 to 1000 nM | CC(=O)N1CCC(n2cc(-c3cnc(N)c4oc(-c5cccc6c5OC(F)(F)O6)cc34)cn2)CC1
81 | 100 to 1000 nM | Nc1ncc(-c2cnn(C3CCN(CC(F)(F)F)CC3)c2)c2cc(-c3cccc4cnccc34)oc12

Row | SMILES | IC50
82 | Nc1ncc(-c2cnn(C3CCN(CCF)CC3)c2)c2cc(-c3cccc4cnccc34)oc12 | 100 to 1000 nM
